Data as given in patent US20240002388A1, “PYRIMIDINONE COMPOUNDS AND USES THEREOF” (HUTCHISON MEDIPHARMA LIMITED, priority 2020, published 2024).

These compounds were tested on L929 cell line (mouse fibroblastoma cell line) (assay: L929 cell viability assay (mTNF-α + Z-VAD-FMK induced necroptosis)). Settings: Mus musculus, L929, 20 h, L929 cells, mTNF-α 0.1 μg/mL + Z-VAD-FMK 5 μM, CellTiter-Glo.
Format: cell-based
Method: L929 cell line (mouse fibroblastoma cell line): purchased from ATCC (American Type Culture Collection) Cell Bank, cultured in 5% CO2, 37° C. incubator, and MEM medium which contains L-Glutamine, with 10% FBS was used. • MEM medium: GIBCO, Cat #11095080; • Fetal bovine serum (FBS): GIBCO, Cat #10099-141C; • Dimethyl sulfoxide (DMSO): Sigma, Cat #D2650; • 0.25% Trypsin-EDTA: GIBCO, Cat #25200072; • Recombinant Mouse TNF-alpha Protein (mTNF-α): R&D system, Cat #410-MT-050; • Pan-Caspase inhibitor (Z-VAD-FMK): Selleckchem, Cat #S7023; • CellTiter-Glo 2.0 Cell Viability Assay kit: Promega, Cat #G9242; • Microwell plate reader: Envision, Perkin Elmer; • 96-well plate: Corning, Cat #3917.
The L929 cells at the logarithmic phase were taken out, and the supernatant was discarded. After trypsinization and cell shedding, 10% FBS-containing medium was added for neutralization, and the supernatant was discarded after centrifugation. The cells were re-suspended using 10% FBS-containing medium, adjusted to 7×10^4 cells/ml, added to 96-well microplate at 70 μL/well, i.e., 4.9×10^3 cells/well. Then the plate was incubated in a 5% CO2, 37° C. cell incubator overnight.
After incubating overnight, the 96-well plate was taken out, the medium was discarded, and the plate was washed with 1% FBS-containing MEM medium. Then 1% FBS-containing MEM medium was added at 70 μL/well, and the plate was cultured in a 5% CO2, 37° C. cell incubator. After incubating for 1 hour, the test compound was diluted to the corresponding concentrations using DMSO with 3-fold serial dilution, then the corresponding concentration of DMSO diluted solution was diluted into 1% FBS-containing MEM medium, and 10 μL/well of the diluted test compound with different concentrations (final concentrations of test compound were 10, 3.33, 1.11, 0.37, 0.12, 0.04, 0.014 and 0.005 μM, while final concentration of DMSO was 0.3%) or 10 μL/well control solution (3% DMSO) were added to the cell culture system respectively, with the total volume being 80 μL/well. Then 10 μL of Z-VAD-FMK solution diluted with 1% FBS-containing MEM medium (final concentration of 5 μM) or 10 μL of control solution (2.5% DMSO) was added to each well, with the total volume being 90 μL/well. The plate was incubated in a 5% CO2, 37° C. cell culture incubator for 1 hour.
After incubating for 1 hour, 10 μL of recombinant mouse TNF-α protein solution diluted with 1% FBS-containing MEM medium (final concentration of 0.1 μg/mL) or 10 μL control solution (1% FBS-containing MEM medium) was added to each well. The plate was incubated in a 5% CO2, 37° C. cell culture incubator for 20 hours.
The cell culture plate was taken out from the incubator, and left to stand at room temperature for 30 minutes. Meanwhile, CellTiter-Glo viability assay kit was put from freezer to room temperature, and 50 μL of CellTiter-Glo reagent was added to all wells, the plate was shaken for 1 minutes, protected from light at room temperature for 10 minutes then read the plate on Envision to get the luminescence signal.
The 96-well plate in the dark was taken out, and the chemiluminescence was determined using the Envision microwell plate reader as the signal value of each well.
The mean signal value of the wells of the mixed solution of recombinant mouse TNF-alpha protein (final concentration of 0.1 μg/mL) and Pan-Caspase inhibitor (final concentration of 5 μM) was used as the lower value, and the mean signal value of the wells without stimulation was used as the upper value. According to the signal value of each well, the inhibition rate of each concentration of every compound was calculated, and the IC50 value of compound was obtained by Model 205 in XL-Fit 5.3 software (ID Business Solutions Limited).
Inhibition rate %=[(Luminescence readout of treated compound−Luminescence readout of positive control)/(Luminescence readout of negative control−Luminescence readout of positive control)]×100%, wherein
For `CC(C)n1cncc(-c2ccc(C3(NC(=O)c4ncc5cnn([C@@H](C)C6CC6)c5n4)CC3)cc2)c1=O` [Compound 90, (S)-1-(1-cyclopropylethyl)-N-(1-(4-(1-i-propyl-6-oxo-1,6-dihydropyrimidin-5-yl)phenyl)cyclopropyl)-1H-pyrazolo[3,4-d]pyrimidine-6-carboxamide], the IC50 was 12 nM. For `Cn1cncc(-c2ccc(C3(NC(=O)c4ncc5cnn(-c6ccccc6)c5n4)CC3)cc2)c1=O` [Compound 4], the IC50 was 721 nM. With `CC(C)n1ncc2cnc(C(=O)NC3(c4ccc(-c5cncn([C@H]6C[C@@H]6F)c5=O)cc4)CC3)nc21` [Compound 67] the IC50 was 5650 nM. In the case of `Cn1cncc(-c2ccc(C3(NC(=O)c4nnc(Cc5ccccc5)o4)CC3)cc2)c1=O` [Compound 11], the IC50 is reported as 9120 nM. With `Cn1cncc(-c2ccc(C3(NC(=O)c4nnc(Cc5ccccc5)[nH]4)CC3)cc2)c1=O` [Compound 3] the IC50 was 4280 nM. For `CC(C)n1cncc(-c2ccc(C3(NC(=O)c4nnc(Cc5ccccc5)o4)CC3)cc2)c1=O` [Compound 13], the IC50 was 195 nM. `CC(C)n1cncc(-c2ccc(C3(NC(=O)c4ncc5cnn(C(C)C)c5n4)CC3)cc2)c1=O` [Compound 29, 1-isopropyl-N-(1-(4-(1-isopropyl-6-oxo-1,6-dihydropyrimidin-5-yl)phenyl)cyclopropyl)-1H-pyrazolo[3,4-d]pyrimidine-6-carboxamide] was tested, and the IC50 was 34 nM. Compound `CC(C)n1cncc(-c2ccc(C3(NC(=O)c4ncc5cnn(C6COC6)c5n4)CC3)cc2)c1=O` [Compound 60] has an IC50 of 9080 nM. With `CC(C)Cn1cncc(-c2ccc(C3(NC(=O)c4ncc5cnn(C(C)C)c5n4)CC3)cc2)c1=O` [Compound 45] the IC50 was 58 nM. For `CC(C)n1ncc2cnc(C(=O)NC3(c4cc(F)c(-c5cncn(CC6CC6)c5=O)cc4F)CC3)nc21` [Compound 94], the IC50 was 50 nM. `CC(C#N)n1cncc(-c2ccc(C3(NC(=O)c4ncc5cnn(C(C)C)c5n4)CC3)cc2)c1=O` (stereo in doubt) [Compound 82, (R)—N-(1-(4-(1-(1-cyanoethyl)-6-oxo-1,6-dihydropyrimidin-5-yl)phenyl)cyclopropyl)-1-i-propyl-1H-pyrazolo[3,4-d]pyrimidine-6-carboxamide] was tested, and the IC50 was 359 nM. `C[C@@H](n1cncc(-c2ccc(C3(NC(=O)c4ncc5cnn(CC6CC6)c5n4)CC3)c(F)c2)c1=O)C(F)(F)F` [Compound 76] showed an IC50 of 32 nM. In the case of `C[C@H](n1cncc(-c2ccc(C3(NC(=O)c4ncc5cnn(CC6CC6)c5n4)CC3)c(F)c2)c1=O)C(F)(F)F` [Compound 71], the IC50 is reported as 20 nM. Work on `CC(C)n1ncc2cnc(C(=O)NC3(c4ccc(-c5cncn([C@H](C)C(F)(F)F)c5=O)cc4F)CC3)nc21` (stereo in doubt) [Compound 46] yielded an IC50 of 19 nM. With `CC(C)n1ncc2cnc(C(=O)NC3(c4ccc(-c5cnc(N)n(C)c5=O)cc4)CC3)nc21` [Compound 30] the IC50 was 2590 nM. Work on `Cn1cncc(-c2ccc(C3(NC(=O)c4ncc(Cc5ccccc5)o4)CC3)cc2)c1=O` [Compound 10] yielded an IC50 of 676 nM. `CC(C)n1ncc2cnc(C(=O)NC3(c4ccc(-c5cncn([C@@H](C)C(F)(F)F)c5=O)cc4)CC3)nc21` [Compound 40] was tested, and the IC50 was 109 nM. `CC(C)n1ncc2cnc(C(=O)NC3(c4ccc(-c5cncn(CC6(C)CC6)c5=O)cc4)CC3)nc21` [Compound 86] was tested, and the IC50 was 19 nM. Work on `CC(C)n1cncc(-c2ccc(C3(NC(=O)c4ncc5cnn(-c6ccccc6)c5n4)CC3)cc2)c1=O` [Compound 19] yielded an IC50 of 61 nM. Compound `CC(C)n1ncc2cnc(C(=O)NC3(c4ccc(-c5cncn(CC6CC6)c5=O)cc4F)CC3)nc21` [Compound 74] has an IC50 of 30 nM. `CC(C)n1cncc(-c2ccc(C3(NC(=O)c4ncc5cnn(C(C)C)c5n4)CC3)cc2Cl)c1=O` [Compound 33] gave an IC50 of 665 nM. Compound `CC(C)n1cncc(-c2ccc(C3(NC(=O)c4nc5n(n4)[C@@H](c4ccccc4)CC5)CC3)cc2)c1=O` [Compound 15] has an IC50 of 2360 nM. In the case of `CC(C)n1ncc2cnc(C(=O)NC3(c4ccc(-c5cncn(C6CC6)c5=O)cc4)CC3)nc21` [Compound 12], the IC50 is reported as 1020 nM. In the case of `CC(C)Cc1nc(C(=O)NC2(c3ccc(-c4cncn(C)c4=O)cc3)CC2)ncc1Cl` [Compound 6], the IC50 is reported as 299 nM. `CC(C)n1cncc(-c2ccc(C3(NC(=O)c4ncc5cnn(C(C)C)c5n4)CC3)c(F)c2F)c1=O` [Compound 93] showed an IC50 of 148 nM. In the case of `Cn1cncc(-c2ccc(C3(NC(=O)c4noc(Cc5ccccc5)n4)CC3)cc2)c1=O` [Compound 9], the IC50 is reported as 2810 nM. `Cn1cncc(-c2ccc(C3(NC(=O)c4nnc(Cc5c(F)cccc5F)[nH]4)CC3)cc2)c1=O` [Compound 18] was tested, and the IC50 was 1720 nM. `CC(C)n1cncc(-c2ccc(C3(NC(=O)c4ncc5cnn(CC6CCC6)c5n4)CC3)cc2)c1=O` [Compound 62] gave an IC50 of 27 nM. `CC(C)n1ncc2cnc(C(=O)NC3(c4ccc(-c5cncn(CC(F)(F)F)c5=O)cc4)CC3)nc21` [Compound 38] showed an IC50 of 152 nM. Compound `CC(C)n1ncc2cnc(C(=O)NC3(c4ccc(-c5cncn(CC6CC6)c5=O)c(F)c4)CC3)nc21` [Compound 75] has an IC50 of 41 nM. With `CC(C)n1ncc2cnc(C(=O)NC3(c4ccc(-c5cncn([C@H](C)C6CC6)c5=O)cc4)CC3)nc21` [Compound 84, (R)—N-(1-(4-(1-(1-cyclopropylethyl)-6-oxo-1,6-dihydropyrimidin-5-yl)phenyl)cyclopropyl)-1-i-propyl-1H-pyrazolo[3,4-d]pyrimidine-6-carboxamide] the IC50 was 7 nM. Compound `Cn1cncc(-c2ccc(C3(NC(=O)c4nc5n(n4)[C@@H](c4ccccc4)CC5)CC3)cc2)c1=O` [Compound 54, (R)—N-(1-(4-(1-methyl-6-oxo-1,6-dihydropyrimidin-5-yl)phenyl)cyclopropyl)-5-phenyl-6,7-dihydro-5H-pyrrolo[1,2-b][1,2,4]triazole-2-carboxamide] has an IC50 of 578 nM. `O=C(NC1(c2ccc(-c3cncn(CC4CC4)c3=O)cc2)CC1)c1ncc2cnn(CC3CC3)c2n1` [Compound 64] gave an IC50 of 79 nM. `CC(C)n1ncc2cnc(C(=O)NC3(c4ccc(-c5cncn([C@H](C)C(F)(F)F)c5=O)cc4)CC3)nc21` [Compound 39] showed an IC50 of 59 nM. `CC(C)n1ncc2cnc(C(=O)NC3(c4ccc(-c5cncn(C6(C)CCC6)c5=O)cc4)CC3)nc21` [Compound 79] was tested, and the IC50 was 10 nM. `CC(C)n1ncc2cnc(C(=O)NC3(c4ccc(-c5cncn(C6COC6)c5=O)cc4)CC3)nc21` [Compound 41] was tested, and the IC50 was 1970 nM. `CC(C)n1ncc2cnc(C(=O)NC3(c4ccc(-c5cncn(C)c5=O)cc4)CC3)nc21` [Compound 1, 1-isopropyl-N-(1-(4-(1-methyl-6-oxo-1,6-dihydropyrimidin-5-yl)phenyl)cyclopropyl)-1H-pyrazolo[3,4-d]pyrimidine-6-carboxamide] gave an IC50 of 1250 nM. With `CC(C)n1ncc2cnc(C(=O)NC3(c4ccc(-c5cncn([C@@H]6C[C@@H]6F)c5=O)cc4)CC3)nc21` [Compound 69] the IC50 was 98 nM. `CC(C)n1ncc2cnc(C(=O)NC3(c4ccc(-c5cncn(C)c5=O)cc4F)CC3)nc21` [Compound 26] was tested, and the IC50 was 846 nM. `CC(C)Cc1nc(C(=O)NC2(c3ccc(-c4cncn(C(C)C)c4=O)cc3)CC2)ncc1Cl` [Compound 22] showed an IC50 of 28 nM. Compound `CC(C)n1cncc(-c2ccc(C3(NC(=O)c4ncc5cnn(C(C)C)c5n4)CC3)c(F)c2)c1=O` [Compound 34] has an IC50 of 78 nM.
